Source: the OligoGym collection
Where “and” joins values, the source holds several entries; their conditions need not be identical. Identical values can stand only once. After the bases stand the sugars from the 5' end (letter, count) and the backbone: PS all phosphorothioate, else s phosphorothioate and o phosphodiester by linkage. Methylation of C is not given here. e = 2'-O-(2-methoxyethyl) (MOE); d = 2'-deoxy (DNA)

Molecular target: DGAT2
Settings: ASO

Row | Sequence | target mRNA inhibition (HepG2, 0.12 µM) | target mRNA inhibition (HepG2, 2.5 µM) | target mRNA inhibition (HepG2, 10 µM) | target mRNA inhibition (HepG2, 20 µM)
1 | GACCCACTGTGACCTCCTGC (sugars e5 d10 e5, PS) | 25% | – | – | –
2 | GACCTATTGAGCCAGGTGAC (sugars e5 d10 e5, PS) | 36% | – | – | –
3 | GACTTGCCCAGCAACCCATC (sugars e5 d10 e5, PS) | – | 77% | 54% | –
4 | GAGAAGAGGTCCTGGAGGGC (sugars e5 d10 e5, PS) | 10% | – | – | –
5 | GAGCAGATCTCAAAATCTCG (sugars e5 d10 e5, PS) | – | 72% | 87% | –
6 | GAGCTCAGAGACTCAGCCGC (sugars e2 d13 e5, PS) | 89% | 27% | 42% | 61%
7 | GAGCTCTCAAGTCTTCC (sugars e3 d10 e4, PS) | – | 55% and 64% | 86% and 87% | –
8 | GAGTAAGGGTATTCTGCTCA (sugars e5 d10 e5, PS) | – | – | 91% and 93% and 96% | –
9 | GAGTAGGGCACCAGCCCCCA (sugars e5 d10 e5, PS) | 0% | – | – | –
10 | GAGTAGTCAAAGGTGGCTTC (sugars e5 d10 e5, PS) | – | 66% | 78% | –
11 | GATGCTCCAGGTGGGCCAGA (sugars e5 d10 e5, PS) | – | 52% | 82% | –
12 | GATGGCACTGCAGGCCACTC (sugars e5 d10 e5, PS) | 28% | – | – | –
13 | GATTCAAATCTGTGTGACCT (sugars e5 d10 e5, PS) | – | 64% and 83% | 89% and 92% | –
14 | GCAATGCCAATGCCTAG (sugars e3 d10 e4, PS) | – | 69% and 80% | 78% and 87% | –
15 | GCAATGTTGCCATCATA (sugars e3 d10 e4, PS) | – | 69% and 76% | 90% and 95% | –
16 | GCACCATTTTCACAAGGAGA (sugars e5 d10 e5, PS) | – | 79% and 72% | 85% and 81% | –
17 | GCACTAAGCTAGGCACACCC (sugars e5 d10 e5, PS) | – | 62% | 90% | –
18 | GCACTGACATGGTAAGTCCT (sugars e5 d10 e5, PS) | – | 87% and 79% | 93% and 89% | –
19 | GCACTGCAGGCCACTCCCAG (sugars e5 d10 e5, PS) | 37% | – | – | –
20 | GCAGATGGACAGGTGATTCT (sugars e5 d10 e5, PS) | – | 69% | 91% | –
21 | GCAGCCTGGACAAGTCCTGC (sugars e3 d14 e3, PS) | 83% | 48% and 59% | 73% | 81%

Row | Sequence | target mRNA inhibition (HepG2, 0.12 µM) | target mRNA inhibition (HepG2, 2.5 µM) | target mRNA inhibition (HepG2, 10 µM) | target mRNA inhibition (HepG2, 20 µM)
22 | GCAGCCTGGACAAGTCCTGC (sugars e5 d10 e5, PS) | 70% | – | – | –
23 | GCAGGTTGTGTGTCTTCACC (sugars e2 d13 e5, PS) | 56% | – | – | –
24 | GCAGGTTGTGTGTCTTCACC (sugars e3 d14 e3, PS) | 69% | – | – | –
25 | GCATGGAGCTCAGAGACTCA (sugars e5 d10 e5, PS) | 69% | – | – | –
26 | GCATTCTTGCCAGGCATGGA (sugars e5 d10 e5, PS) | – | 41% | 74% | –
27 | GCATTGCCACTCCCATTCTT (sugars e5 d10 e5, PS) | – | – | – | 94% and 91% and 95%
28 | GCCACAGGGCCCTTTCCAGA (sugars e5 d10 e5, PS) | – | 68% | 92% | –
29 | GCCACCTGCTTTGGAACTAA (sugars e5 d10 e5, PS) | 41% | – | – | –
30 | GCCACTCAGCCTTGGAGCCA (sugars e5 d10 e5, PS) | – | 90% and 83% | 86% and 85% | –
31 | GCCAGGCCCCTTCTGAAGAG (sugars e5 d10 e5, PS) | 36% | – | – | –
32 | GCCAGGTAAGGCCGTATGCC (sugars e2 d13 e5, PS) | 66% | – | – | –
33 | GCCATCATACTAGACTATGC (sugars e5 d10 e5, PS) | – | 88% and 81% | 91% and 90% | –
34 | GCCCAGTTTCGGACCCACTG (sugars e5 d10 e5, PS) | – | 37% | 46% | 65%
35 | GCCTGGACAAGTCCTGCCCA (sugars e5 d10 e5, PS) | 70% and 86% | – | – | 81% and 88%
36 | GCGACAGCCCTGTGCCAGCC (sugars e5 d10 e5, PS) | – | 72% | 99% | –
37 | GCGATTCACTGAGGACC (sugars e3 d10 e4, PS) | – | – | 68% and 86% | –
38 | GCGCAGGACCCCGGAGTAGG (sugars e3 d14 e3, PS) | 71% | – | – | –
39 | GCGGCAGAGCCAGGACTGAA (sugars e5 d10 e5, PS) | 35% | – | – | –
40 | GCTACTGGCATTGCTCCTCC (sugars e5 d10 e5, PS) | – | 42% | 81% | –
41 | GCTAGAGGCTGAGTTCTGCT (sugars e5 d10 e5, PS) | – | 85% and 87% | 90% and 92% | –
42 | GCTATTCATTTTTCTGAGCC (sugars e5 d10 e5, PS) | 47% | – | – | –
